Key:
μ-opioid receptor [1] = biological target: T1, μ-opioid receptor (Homo sapiens (Human), UniProt P35372); assay: μ-opioid receptor [35S]GTPγS functional assay, U-2 OS cells; assay type: biochemical; settings: for Emax: relative to DAMGO, U-2 OS cells
Experimental: (§1) μ-Opioid Receptor Functional Assay Procedures: [^35S]GTPγS functional assays were conducted using freshly thawed μ-receptor membranes prepared in-house from a cell line expressing recombinant μ opioid receptor in a HEK-293, CHO or U-2 OS cell background, or purchased from a commercial source (Perkin Elmer, Shelton, Conn.; or DiscovRx, Fremont, Calif.). Assay reactions were prepared by sequentially adding the following reagents to binding buffer (100 mM NaCl, 10 mM MgCl2, 20 mM HEPES, pH 7.4) on ice (final concentrations indicated): membrane protein (0.026 mg/mL), saponin ([…]), GDP ([…]) and [^35S]GTPγS (0.20 nM; Perkin Elmer, Shelton, Conn.). The prepared membrane solution (190 μl/well) was transferred to 96-shallow well polypropylene plates containing 10 μl of 20× concentrated stock solutions of the agonist [D-Ala^2, N-methyl-Phe^4 Gly-ol^5]-enkephalin (DAMGO) prepared in dimethyl sulfoxide (DMSO). Plates were incubated for 30 min at about 25° C. with shaking. Reactions were terminated by rapid filtration onto 96-well Unifilter GF/B filter plates (Perkin Elmer, Shelton, Conn.) using a 96-well tissue harvester (Perkin Elmer, Shelton, Conn.) followed by three filtration washes with 200 μl of ice-cold wash buffer (10 mM NaH2PO4, 10 mM Na2HPO4, pH 7.4). Filter plates were subsequently dried at 50° C. for 2-3 hours. BetaScint scintillation cocktail (Perkin Elmer, Shelton, Conn.) was added (50 μl/well) and plates were counted using a Packard Top-Count for 1 min/well. Data were analyzed using the sigmoidal dose-response curve fitting functions in GraphPad PRISM v. 3.0, or an in-house function for non-linear, sigmoidal dose-response curve-fitting.
(§2) μ-Opioid Receptor Functional Data: μ GTP EC50 is the concentration of a compound providing 50% of the maximal response for the compound at a μ-opioid receptor.
(§3) μ GTP Emax (%) is the maximal effect elicited by a compound relative to the effect elicited by DAMGO, a standard μ agonist. Generally, the μ GTP Emax (%) value measures the efficacy of a compound to treat or prevent pain or other Conditions.
(§4) The following TABLE 3 provides results on the activity response of certain Compounds of the Invention at the μ- and κ-opioid receptors determined as described above using U-2 OS cells.

μ-opioid receptor [2] = biological target: T1, μ-opioid receptor; assay: μ-opioid receptor [35S]GTPγS functional assay, HEK-293 or CHO cells; assay type: biochemical
Experimental: as §1, §2, §3
(§5) In TABLE 2, activity response of certain Compounds of the Invention to the μ-, δ- and κ-opioid receptors was determined as described above for functional assays using HEK-293 or CHO cells.

κ-opioid receptor [3] = biological target: T2, κ-opioid receptor (Homo sapiens (Human), UniProt P41145); assay: κ-opioid receptor [35S]GTPγS functional assay, U-2 OS cells; assay type: biochemical; settings: for Emax: relative to U69,593, U-2 OS cells
Experimental: (§6) κ-Opioid Receptor Functional Assay Procedures: Functional [^35S]GTPγS binding assays were conducted as follows. κ opioid receptor membrane solution was prepared by sequentially adding final concentrations of 0.026 μg/μl κ membrane protein (in-house), 10 μg/mL saponin, 3 μM GDP and 0.20 nM [^35S]GTPγS to binding buffer (100 mM NaCl, 10 mM MgCl2, 20 mM HEPES, pH 7.4) on ice. The prepared membrane solution (190 μl/well) was transferred to 96-shallow well polypropylene plates containing 10 μl of 20× concentrated stock solutions of agonist prepared in DMSO. Plates were incubated for 30 min at a temperature of about 25° C. with shaking. Reactions were terminated by rapid filtration onto 96-well Unifilter GF/B filter plates (Perkin Elmer, Shelton, Conn.) using a 96-well tissue harvester (Packard) and followed by three filtration washes with 200 μl ice-cold binding buffer (10 mM NaH2PO4, 10 mM Na2HPO4, pH 7.4). Filter plates were subsequently dried at 50° C. for 2-3 hours. Fifty μl/well scintillation cocktail (Perkin Elmer, Shelton, Conn.) was added and plates were counted in a Packard Top-Count for 1 min/well.
(§7) κ-Opioid Receptor Functional Data: κ GTP EC50 is the concentration of a compound providing 50% of the maximal response for the compound at a κ receptor.
(§8) κ GTP Emax (%) is the maximal effect elicited by a compound relative to the effect elicited by U69,593.
as §4

κ-opioid receptor [4] = biological target: T2, κ-opioid receptor; assay: κ-opioid receptor [35S]GTPγS functional assay, HEK-293 or CHO cells; assay type: biochemical
Experimental: as §6, §7, §8, §5

κ-opioid receptor [5] = biological target: T2, κ-opioid receptor; assay: κ-opioid receptor radioligand dose-displacement binding assay ([3H]-U69,593); settings: binding affinity, [3H]-U69,593 displacement
Experimental: κ-Opioid Receptor Binding Assay Procedures: Membranes from HEK-293 cells, CHO or U-2 OS cells expressing the recombinant human kappa opioid receptor (κ) were prepared by lysing cells in ice cold hypotonic buffer (2.5 mM MgCl2, 50 mM HEPES, pH 7.4) (10 mL/10 cm dish) followed by homogenization with a tissue grinder/Teflon pestle. Membranes were collected by centrifugation at 30,000×g for 15 min at 4° C. and pellets were resuspended in hypotonic buffer to a final concentration of 1-3 mg/mL. Protein concentrations were determined using the BioRad protein assay reagent with bovine serum albumen as standard, Aliquots of κ receptor membranes were stored at […].
Radioligand dose displacement assays used 0.4 nM [^3H]-U69,593 (GE Healthcare, Piscataway, N.J.; 40 Ci/mmole) with 15 μg membrane protein (recombinant κ opioid receptor expressed in HEK 293 cells; in-house prep) in a final volume of 200 μl binding buffer (5% DMSO, 50 mM Trizma base, pH 7.4). Non-specific binding was determined in the presence of 10 μM unlabeled naloxone or U69,593. All reactions were performed in 96-well polypropylene plates for 1 hour at a temperature of about 25° C. Binding reactions were terminated by rapid filtration onto 96-well Unifilter GF/C filter plates (Perkin Elmer, Shelton, Conn.) presoaked in 0.5% polyethylenimine (Sigma). Harvesting was performed using a 96-well tissue harvester (Perkin Elmer, Shelton, Conn.) followed by five filtration washes with 200 μl ice-cold binding buffer. Filter plates were subsequently dried at 50° C. for 1-2 hours. Fifty μl/well scintillation cocktail (Perkin Elmer, Shelton, Conn.) was added and plates were counted in a Packard Top-Count for 1 min/well.

Q: Which results are given for NC(=O)c1cc2c([nH]c1=O)C[C@]13CCN(CCc4ccccc4)[C@H](Cc4ccc(O)cc41)[C@]3(O)C2 [Compound 37, (6R,6aS,12aR)-2,6a-dihydroxy-10-oxo-15-phenethyl-6,6a,7,10,11,12-hexahydro-5H-6,12a-(epiminoethano)naphtho[2,1-g]quinoline-9-carboxamide]?
A: EC50 (μ-opioid receptor [1]): 72.7 ± 3.87 nM; Emax (μ-opioid receptor [1]): 71.3 ± 0.33%; EC50 (μ-opioid receptor [2]): 268 ± 53.1 nM; Emax (μ-opioid receptor [2]; relative to DAMGO, HEK-293 or CHO cells): 98 ± 4.62%; EC50 (κ-opioid receptor [3]): 374 ± 93.5 nM; Emax (κ-opioid receptor [3]): 11.3 ± 1.45%; EC50 (κ-opioid receptor [4]): > 20000 nM; Emax (κ-opioid receptor [4]; relative to U69,593, HEK-293 or CHO cells): 2.5%

Q: For CN(C)C(=O)c1cc2c([nH]c1=O)C[C@]13CCN(C)[C@H](Cc4ccc(O)cc41)[C@]3(O)C2 [Compound 46, (6R,6aS,12aR)-2,6a-dihydroxy-N,N,15-trimethyl-10-oxo-6,6a,7,10,11,12-hexahydro-5H-6,12a-(epiminoethano)naphtho[2,1-g]quinoline-9-carboxamide], which EC50 (μ-opioid receptor [1]) is on record?
A: 157 ± 16.4 nM

Q: What about the Emax (μ-opioid receptor [1]) of the same molecule?
A: 84.7 ± 2.19%

Q: What about the EC50 (κ-opioid receptor [3]) of the same molecule?
A: 624 ± 83.6 nM

Q: And the Emax (κ-opioid receptor [3])?
A: 73 ± 6.99%

Q: For CN1CC[C@]23Cc4[nH]c(=O)c(C(=O)NCc5ccccc5)cc4C[C@@]2(O)[C@H]1Cc1ccc(O)cc13 [Compound 45, (6R,6aS,12aR)—N-benzyl-2,6a-dihydroxy-15-methyl-10-oxo-6,6a,7,10,11,12-hexahydro-5H-6,12a-(epiminoethano)naphtho[2,1-g]quinoline-9-carboxamide], which EC50 (μ-opioid receptor [1]) is on record?
A: 306 ± 25.2 nM

Q: What about the Emax (μ-opioid receptor [1]) of the same molecule?
A: 90 ± 1.53%

Q: And the EC50 (κ-opioid receptor [3])?
A: 128 ± 8.96 nM

Q: What about the Emax (κ-opioid receptor [3]) of the same molecule?
A: 94.3 ± 5.61%

Q: What does the source list for CN1CC[C@]23Cc4[nH]c(=O)c(C(=O)N5CCCC5)cc4C[C@@]2(O)[C@H]1Cc1ccc(O)cc13 [Compound 48, (6R,6aS,12aR)-2,6a-dihydroxy-15-methyl-9-(pyrrolidine-1-carbonyl)-6a,7,11,12-tetrahydro-5H-6,12a-(epiminoethano)naphtho[2,1-g]quinolin-10(6H)-one]?
A: EC50 (μ-opioid receptor [1]): 97.4 ± 4.35 nM; Emax (μ-opioid receptor [1]): 82.7 ± 0.88%; EC50 (κ-opioid receptor [3]): 226 ± 4.41 nM; Emax (κ-opioid receptor [3]): 90.3 ± 5.46%

Q: With CC(C)C[C@H](NC(=O)c1cc2c([nH]c1=O)C[C@]13CCN(CC4CC4)[C@H](Cc4ccc(O)cc41)[C@]3(O)C2)C(N)=O [Compound 18, (6R,6aS,12aR)—N—((S)-1-amino-4-methyl-1-oxopentan-2-yl)-15-(cyclopropylmethyl)-2,6a-dihydroxy-10-oxo-6,6a,7,10,11,12-hexahydro-5H-6,12a-(epiminoethano)naphtho[2,1-g]quinoline-9-carboxamide] as the molecule, how does the Ki (κ-opioid receptor [5]) read?
A: 1.09 ± 0.05 nM

Q: And the EC50 (κ-opioid receptor [4])?
A: > 20000 nM

Q: With CN1CC[C@]23Cc4[nH]c(=O)c(C(=O)N[C@@H](Cc5ccccc5)C(N)=O)cc4C[C@@]2(O)[C@H]1Cc1ccc(O)cc13 [Compound 51, (6R,6aS,12R)—N—((S)-1-amino-1-oxo-3-phenylpropan-2-yl)-2,6a-dihydroxy-15-methyl-10-oxo-6,6a,7,10,11,12-hexahydro-5H-6,12a-(epiminoethano)naphtho[2.1-g]quinoline-9-carboxamide] as the molecule, how does the EC50 (μ-opioid receptor [1]) read?
A: 126 ± 14.3 nM

Q: And the Emax (μ-opioid receptor [1])?
A: 97.7 ± 1.45%

Q: What about the EC50 (κ-opioid receptor [3]) of the same molecule?
A: 488 ± 79.4 nM

Q: What about the Emax (κ-opioid receptor [3]) of the same molecule?
A: 39.3 ± 3.84%

Q: What does the source list for COc1ccc2c(c1)[C@]13CCN[C@H](C2)[C@]1(O)Cc1cc(C(N)=O)c(=O)[nH]c1C3 [Compound 32, (6R,6aS,12aR)-6a-hydroxy-2-methoxy-10-oxo-6,6a,7,10,11,12-hexahydro-5H-6,12a-(epiminoethano)naphtho[2,1-g]quinoline-9-carboxamide]?
A: EC50 (μ-opioid receptor [1]): > 20000 nM; Emax (μ-opioid receptor [1]): 17.5%; EC50 (κ-opioid receptor [3]): > 20000 nM; Emax (κ-opioid receptor [3]): 6.7 ± 6.56%

Q: Which results are given for CN1CC[C@]23Cc4[nH]c(=O)c(C(=O)N5CCC[C@H]5C(N)=O)cc4C[C@@]2(O)[C@H]1Cc1ccc(O)cc13 [Compound 53, (S)-1-((6R,6aS,12R)-2,6a-dihydroxy-15-methyl-10-oxo-6,6a,7,10,11,12-hexahydro-5H-6,12a-(epiminoethano)naphtho[2.1-g]quinoline-9-carbonyl)pyrrolidine-2-carboxamide]?
A: EC50 (μ-opioid receptor [1]): 123 ± 6.15 nM; Emax (μ-opioid receptor [1]): 84 ± 2.08%; EC50 (κ-opioid receptor [3]): 602 ± 173 nM; Emax (κ-opioid receptor [3]): 68.3 ± 3.38%

Q: NC(=O)c1cc2c([nH]c1=O)C[C@]13CCN(CCF)[C@H](Cc4ccc(O)cc41)[C@]3(O)C2 [Compound 35, (6R,6aS,12aR)-15-(2-fluoroethyl)-2,6a-dihydroxy-10-oxo-6,6a,7,10,11,12-hexahydro-5H-6,12a-(epiminoethano)naphtho[2,1-g]quinoline-9-carboxamide] was tested. Which EC50 (μ-opioid receptor [1]) did it give?
A: > 20000 nM

Q: And the Emax (μ-opioid receptor [1])?
A: 2.5%

Q: And the EC50 (κ-opioid receptor [3])?
A: 93.7 ± 27.7 nM

Q: And the Emax (κ-opioid receptor [3])?
A: 66 ± 1.53%

Q: COc1ccc2c(c1)[C@]13CCN(CC4CC4)[C@H](C2)[C@]1(O)Cc1cc(C(=O)NCC(N)=O)c(=O)[nH]c1C3 [Compound 13, (6R,6aS,12aR)—N-(2-amino-2-oxoethyl)-15-(cyclopropylmethyl)-6a-hydroxy-2-methoxy-10-oxo-6,6a,7,10,11,12-hexahydro-5H-6,12a-(epiminoethano)naphtho[2,1-g]quinoline-9-carboxamide] was tested. Which Ki (κ-opioid receptor [5]) did it give?
A: 467 ± 173 nM

Q: How did the EC50 (μ-opioid receptor [1]) turn out when CN1CC[C@]23Cc4c(cc(C(N)=O)c(=O)n4C)C[C@@]2(O)[C@H]1Cc1ccc(O)cc13 [Compound 39, (6R,6aS,12aR)-2,6a-dihydroxy-11,15-dimethyl-10-oxo-6,6a,7,10,11,12-hexahydro-5H-6,12a-(epiminoethano)naphtho[2,1-g]quinoline-9-carboxamide] was run?
A: 164 ± 59 nM

Q: What about the Emax (μ-opioid receptor [1]) of the same molecule?
A: 33.7 ± 8.01%

Q: And the EC50 (κ-opioid receptor [3])?
A: 641.6 ± 3.49 nM

Q: What about the Emax (κ-opioid receptor [3]) of the same molecule?
A: 54 ± 3.61%

Q: For O=C(c1cc2c([nH]c1=O)C[C@]13CCN(CC4CC4)[C@H](Cc4ccc(O)cc41)[C@@H]3C2)N1CCCC1 [Compound 55, (6R,6aS,12R)-15-(cyclopropylmethyl)-2-hydroxy-9-(pyrrolidine-1-carbonyl)-6,6a,7,12-tetrahydro-5H-6,12a-(epiminoethano)naphtho[2.1-g]quinolin-10(11H)-one], which EC50 (μ-opioid receptor [1]) is on record?
A: 0.79 ± 0.31 nM

Q: What about the Emax (μ-opioid receptor [1]) of the same molecule?
A: 17.6 ± 0.68%

Q: What about the EC50 (κ-opioid receptor [3]) of the same molecule?
A: 0.33 ± 0.037 nM

Q: And the Emax (κ-opioid receptor [3])?
A: 86 ± 2.68%

Reference: patent publication US8980906B2, “Pyridonemorphinan analogs and biological activity on opioid receptors” (Purdue Pharma L.P., priority 2012, dated 2015)
